Entries after “also recorded” stand apart in the source; their conditions may differ.
Experiments:
IEC-6 cells = experiment: [3H]thymidine incorporation into DNA in IEC-6 cells; format: cell-based, rat
Description: Growth stimulation by peptide 77-97 was additive with that of EGF. […] HAE cells were used to test whether AMP-18 can exert an effect on epithelial cells that exist in the local environment of its synthesis. These cells, provided by Dr. Duane Smoot, Howard University College of Medicine, are not completely immortalized and therefore have limited passage number. Growth stimulation of HAE cells by peptide 77-97 was apparently additive with that of EGF (FIG. 16, left panel). Not only does the AMP peptide stimulate growth but it also acted as a motogen, resulting in more rapid migration (restitution) of cells into scrape wounds made in confluent cultures. […] Near-maximal growth stimulation was detected at an AMP peptide concentration of 0.5 μg/ml (0.23 μM) (FIG. 15, center panel), a much lower value than the concentration needed for trefoil peptides (1 μg/μl) (˜150 μM) or the α-defensin, cryptdin 3 ([…]) (˜140 μM) to exert their effects in culture. […]
Non-transformed monkey kidney epithelial cell line BSC-1 and other epithelial cell lines were used to assess effects on growth. […] AMP-18 preparations were added to the culture medium and 4 days later the cell monolayer was rinsed, detached with trypsin, and the cells were counted using a hemocytometer. […]

AGS cells = experiment: Growth of gastric epithelial AGS cells (cell count four days later); format: cell-based, human
Description: To characterize the capacity of gastric and intestinal cells to respond to AMP-18, AGS gastric adenocarcinoma cells, HAE human gastric antrum mucosa primary cultures transformed with SV40 large T antigen, rat diploid small intestinal epithelial cells of the IEC-6 (FIG. 15) and IEC-18 lines, NCI N-87 gastric carcinoma cells, and SK-GT5 gastroesophageal adenocarcinoma cells were studied; human WI-38 fibroblasts and HeLa cells served as non-GI control cell lines. Mitogenesis was assayed by performing cell counts 3 to 4 days after exposing cells to the agent of interest, trypsinizing the culture to prepare single cells, and confirming this while counting them in a hemocytometer.

With “LDALVKEKKLQGKGPGGPPPK [97–117, peptide 77-97 of the mature protein, same as 97-117 of the human precursor]” the “stimulation of [3H]thymidine incorporation into DNA” value (IEC-6 cells; P<0.001) was 68%, the “[3H]thymidine incorporation into DNA” value (IEC-6 cells; with peptide, without 16,668±616) was 28,036±882 and the “growth stimulation together with EGF” value (AGS cells; peptide 77-97 8 μg/ml + EGF 50 ng/ml) was “additive”. For the same sequence, the “growth stimulation of AGS cells (in words)” value (AGS cells; peptide 77-97 8 μg/ml, EGF 50 ng/ml at saturating doses) was “stimulated growth; also recorded: mitogenic”.
